These are literature values, as cited in patent US8057823B2, “Lipid nanocapsules, preparation process and use as medicine” (Universite d'Angers, priority 2000, dated 2011).

The structures appear in SMILES notation.

With `CS(=O)(=O)OCCCCOS(C)(=O)=O` [busulfan], the solubility in water result was “virtually insoluble”.

On to `CC(=O)[C@H]1CC[C@H]2[C@@H]3CCC4=CC(=O)CC[C@]4(C)[C@H]3CC[C@]12C` [progesterone], for which the solubility in water entry is on record as “virtually insoluble”.
